Laboratory results published in patent EP4631941A1 (Jiangsu Tasly Diyi Pharmaceutical Co., Ltd., priority 2022, dated 2024).
Where a name gives a salt, the structure may show the parent alone.

Biological target: T1, DYRK2 kinase (Homo sapiens, UniProt Q92630)
T1 sequence (Q92630 1-601): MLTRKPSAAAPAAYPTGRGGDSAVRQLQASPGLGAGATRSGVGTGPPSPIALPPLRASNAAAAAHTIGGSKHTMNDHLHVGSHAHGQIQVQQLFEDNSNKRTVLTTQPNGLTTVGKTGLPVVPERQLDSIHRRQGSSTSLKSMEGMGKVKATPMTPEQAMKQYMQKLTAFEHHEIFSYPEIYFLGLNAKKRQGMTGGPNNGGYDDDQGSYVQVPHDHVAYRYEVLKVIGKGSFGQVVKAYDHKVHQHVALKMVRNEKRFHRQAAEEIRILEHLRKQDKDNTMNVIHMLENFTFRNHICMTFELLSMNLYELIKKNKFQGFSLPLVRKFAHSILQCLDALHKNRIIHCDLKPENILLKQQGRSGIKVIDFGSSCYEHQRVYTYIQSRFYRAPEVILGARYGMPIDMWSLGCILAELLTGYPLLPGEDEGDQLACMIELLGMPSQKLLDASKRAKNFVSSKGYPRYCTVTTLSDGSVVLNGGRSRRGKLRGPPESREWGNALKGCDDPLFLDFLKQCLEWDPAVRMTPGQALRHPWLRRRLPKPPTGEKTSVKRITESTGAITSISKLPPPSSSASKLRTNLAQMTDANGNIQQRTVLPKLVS
Assay: DYRK2 kinase activity analysis assay (33P-ATP, DYRKtide substrate, P81 filter paper)
Assay type: biochemical
Details: 2 hours at room temperature, read-out: IC50

`Cc1cnc(Nc2ccc(CN3CCN(C(C)C)CC3)cn2)nc1-c1ccc2scnc2c1` [Example 1, 4-(benzothiazole-5-yl)-N-(5-((4-isopropylpiperazine-1-yl)methyl)pyridine-2-yl)-5-methylpyri midine-2-amine] and `Cc1cnc(Nc2ccc(CN3CCNCC3)cn2)nc1-c1ccc2scnc2c1` [Example 2, hydrochloride] are within 1.5-fold of each other in IC50: 1470 nM for the first, 1420 nM for the second.

First: CCN1CCN(C(=O)c2ccc(Nc3ncc(C)c(-c4ccc5scnc5c4)n3)nc2)CC1 [Example 3, (6-((4-(benzothiazole-5-yl)-5-methylpyrimidine-2-yl)amino)pyridine-3-yl)(4-ethylpiperazine-1-yl)ketone]
Second: CCN1CCN(C(=O)c2ccc(Nc3ncc(F)c(-c4ccc5scnc5c4)n3)nc2)CC1 [Example 14, (6-((4-(benzothiazole-5-yl)-5-fluoropyrimidine-2-yl)amino)pyridine-3-yl)(4-ethylpiperazine-1-yl)ketone]
The IC50 of the first is 23-fold higher: 498 nM for the first, 22 nM for the second. The second is the more potent here.

Going from `Cc1cnc(Nc2ccc(C(=O)N3CCN(C(=O)OC(C)(C)C)CC3)cn2)nc1-c1ccc2scnc2c1` [Example 4, tert-butyl 4-(6-((4-(benzothiazole-5-yl)-5-methylpyrimidine-2-yl)amino)nicotinoyl)piperazine-1-carboxylate] to `CC(C)(C)OC(=O)N1CCN(C(=O)c2ccc(Nc3ncc(F)c(-c4ccc5scnc5c4)n3)nc2)CC1` [Example 19, tert-butyl 4-(6-((4-(benzothiazole-5-yl)-5-fluoropyrimidine-2-yl)amino)nicotinoyl)piperazine-1-carboxylate], the IC50 falls from 268 nM to 70 nM (3.8-fold).

Compared with `Cc1cnc(Nc2ccc(C(=O)N3CCNCC3)cn2)nc1-c1ccc2scnc2c1` [Example 5, (6-((4-(benzothiazole-5-yl)-5-methylpyrimidine-2-yl)amino)pyridine-3-yl)(piperazine-1-yl)ketone hydrochloride], `COc1cnc(Nc2ccc(C(=O)N3CCNCC3)cn2)nc1-c1ccc2scnc2c1` [Example 6, (6-((4-(benzothiazole-5-yl)-5-methoxypyrimidine-2-yl)amino)pyridine-3-yl)(piperazine-1-yl)k etone hydrochloride] is 2.2-fold higher in IC50: 357 nM for the first, 774 nM for the second. The first is the more potent here.

Compared with `COc1cnc(Nc2ccc(CN3CCNCC3)cn2)nc1-c1ccc2scnc2c1` [Example 7, 4-(benzothiazole-5-yl)-5-methoxy-N-(5-(piperazine-1-ylmethyl)pyridine-2-yl)pyrimidine-2-amine hydrochloride], `Fc1cnc(Nc2ccc(CN3CCNCC3)cn2)nc1-c1ccc2scnc2c1` [Example 13, 4-(benzothiazole-5-yl)-5-fluoro-N-(5-(piperazine-1-methylene)pyridine-2-yl)pyrimidine-2-amine hydrochloride] is 3.6-fold lower in IC50: 779 nM for the first, 216 nM for the second. The second is the more potent here.

First: c1cc(-c2ccc3scnc3c2)nc(Nc2ccc(CN3CCNCC3)cn2)n1 [Example 8, 4-(benzothiazole-5-yl)-N-(5-(piperazine-1-methylene)pyridine-2-yl)pyrimidine-2-amine hydrochloride]
Second: O=C(c1ccc(Nc2nccc(-c3ccc4scnc4c3)n2)nc1)N1CCNCC1 [Example 11, (6-((4-(benzothiazole-5-yl)pyrimidine-2-yl)amino)pyridine-3-yl)(piperazine-1-yl)ketone hydrochloride]
The IC50 of the first is 3.3-fold higher: 636 nM for the first, 190 nM for the second. The second is the more potent here.

`CCN1CCN(C(=O)c2ccc(Nc3nccc(-c4ccc5scnc5c4)n3)nc2)CC1` [Example 9, (6-((4-(benzothiazole-5-yl)pyrimidine-2-yl)amino)pyridine-3-yl)(4-ethylpiperazine-1-yl)ketone] and `CC(C)(C)OC(=O)N1CCN(C(=O)c2ccc(Nc3nccc(-c4ccc5scnc5c4)n3)nc2)CC1` [Example 10, tert-butyl 4-(6-((4-(benzothiazole-5-yl)pyrimidine-2-yl)amino)nicotinoyl)piperazine-1-carboxylate] are within 1.5-fold of each other in IC50: 67 nM for the first, 99 nM for the second.

Compared with `CCN1CCN(Cc2ccc(Nc3ncc(F)c(-c4ccc5scnc5c4)n3)nc2)CC1` [Example 12], `CCN1CCN(C(=O)c2ccc(Nc3ncc(F)c(-c4ccc5scnc5c4)n3)cn2)CC1` [Example 24, (5-((4-(benzothiazole-5-yl)-5-fluoropyrimidine-2-yl)amino)pyridine-2-yl)(4-ethylpiperazine-1-yl)ketone] is 29-fold lower in IC50: 430 nM for the first, 15 nM for the second.

`CC(=O)N1CCN(C(=O)c2ccc(Nc3ncc(F)c(-c4ccc5scnc5c4)n3)nc2)CC1` [Example 15, 1-(4-(6-((4-(benzothiazole-5-yl)-5-fluoropyrimidine-2-yl)amino)nicotinoyl)piperazine-1-yl)ethyl-1-one] and `CCOC(=O)N1CCN(C(=O)c2ccc(Nc3ncc(F)c(-c4ccc5scnc5c4)n3)nc2)CC1` [Example 18, ethyl 4-(6-((4-(benzothiazole-5-yl)-5-fluoropyrimidine-2-yl)amino)nicotinoyl) piperazine-1-carboxylate] are within 1.5-fold of each other in IC50: 28 nM for the first, 29 nM for the second.

First: O=C(c1ccc(Nc2ncc(F)c(-c3ccc4scnc4c3)n2)nc1)N1CCN(c2ccccc2)CC1 [Example 17, (6-((4-(benzothiazole-5-yl)-5-fluoropyrimidine-2-yl)amino)pyridine-3-yl)(4-phenylpiperazine-1-yl)ketone]
Second: CCN1CCN(C(=O)c2cnc(Nc3ncc(F)c(-c4ccc5scnc5c4)n3)nc2)CC1 [Example 21, (2-((4-(benzothiazole-5-yl)-5-fluoropyrimidine-2-yl)amino)pyrimidine-5-yl)(4-ethylpiperazine-1-yl)ketone]
The IC50 of the first is 19-fold lower: 56 nM for the first, 1050 nM for the second. The first is the more potent here.

Going from `CC(C)(C)OC(=O)N1CCN(C(=O)c2cnc(Nc3ncc(F)c(-c4ccc5scnc5c4)n3)nc2)CC1` [Example 22, tert-butyl 4-(2-((4-(benzothiazole-5-yl)-5-fluoropyrimidine-2-yl)amino)pyrimidine-5-carbonyl)piperazine-1-c arboxylate] to `CC(C)(C)OC(=O)N1CCN(c2ccc(Nc3ncc(F)c(-c4ccc5scnc5c4)n3)cn2)CC1` [Example 25, tert-butyl 4-(5-((4-(benzothiazole-5-yl)-5-fluoropyrimidine-2-yl)amino)pyridine-2-yl)piperazine-1-carboxylate], the IC50 falls from 535 nM to 16 nM (33-fold). The second is the more potent here.

Going from `O=C(c1cnc(Nc2ncc(F)c(-c3ccc4scnc4c3)n2)nc1)N1CCNCC1` [Example 23, (2-((4-(benzothiazole-5-yl)-5-fluoropyrimidine-2-yl)amino)pyrimidine-5-yl)(piperazine-1-yl)k etone hydrochloride] to `O=C(c1ccc(Nc2ncc(F)c(-c3ccc4scnc4c3)n2)cn1)N1CCNCC1` [Example 26, (5-((4-(benzothiazole-5-yl)-5-fluoropyrimidine-2-yl)amino)pyridine-2-yl)(piperazine-1-yl)ketone hydrochloride], the IC50 falls from 695 nM to 4 nM (170-fold). The second is the more potent here.

First: CN(C)c1nc2cc(-c3nc(Nc4ccc(C(=O)N5CCNCC5)cn4)ncc3F)ccc2s1 [Example 27, (6-((4-(2-(dimethylamino)benzothiazole-5-yl)-5-fluoropyrimidine-2-yl)amino)pyridine-3-yl)(piperazine-1-yl)ketone hydrochloride]
Second: CCN(CC)c1nc2cc(-c3nc(Nc4ccc(C(=O)N5CCNCC5)cn4)ncc3F)ccc2s1 [Example 28, (6-((4-(2-(diethylamino)benzothiazole-5-yl)-5-fluoropyrimidine-2-yl)amino)pyridine-3-yl)(piperazine-1-yl)ketone hydrochloride]
The IC50 of the first is 1.9-fold lower: 18 nM for the first, 35 nM for the second.

First: CCN1CCN(C(=O)c2ccc(Nc3ncc(F)c(-c4ccc5sc(N(C)C)nc5c4)n3)cn2)CC1 [Example 29, (5-((4-(2-(dimethylamino)benzothiazole-5-yl)-5-fluoropyrimidine-2-yl)amino)pyridine-2-yl)(4-ethylpiperazine-1-yl)ketone]
Second: CCN1CCN(C(=O)c2ccc(Nc3ncc(F)c(-c4ccc5sc(N(CC)CC)nc5c4)n3)cn2)CC1 [Example 33, (5-((4-(2-(diethylamino)benzothiazole-5-yl)-5-fluoropyrimidine-2-yl)amino)pyridine-2-yl)(4-ethylpiperazine-1-yl)ketone]
The IC50 of the first is 2.6-fold lower: 11 nM for the first, 29 nM for the second.

First: CC(C)N1CCN(C(=O)c2ccc(Nc3ncc(F)c(-c4ccc5sc(N(C)C)nc5c4)n3)cn2)CC1 [Example 30, (5-((4-(2-(dimethylamino)benzothiazole-5-yl)-5-fluoropyrimidine-2-yl)amino)pyridine-2-yl)(4-isopropylpiperazine-1-yl)ketone]
Second: CCN(CC)c1nc2cc(-c3nc(Nc4ccc(C(=O)N5CCN(C(C)C)CC5)nc4)ncc3F)ccc2s1 [Example 34, (5-((4-(2-(diethylamino)benzothiazole-5-yl)-5-fluoropyrimidine-2-yl)amino)pyridine-2-yl)(4-isopropylpiperazine-1-yl)ketone]
The IC50 of the first is 3.5-fold lower: 13 nM for the first, 45 nM for the second. The first is the more potent here.

For `CN(C)c1nc2cc(-c3nc(Nc4ccc(C(=O)N5CCNCC5)nc4)ncc3F)ccc2s1` [Example 32, (5-((4-(2-(dimethylamino)benzothiazole-5-yl)-5-fluoropyrimidine-2-yl)amino)pyridine-2-yl)(piperazine-1-yl)ketone hydrochloride], the IC50 was 9 nM.

Same assay, conditions: IC50 (nM), 2 hours at room temperature

Compared with `CN(C)c1nc2cc(-c3nc(Nc4ccc(C(=O)N5CCN(C(=O)OC(C)(C)C)CC5)nc4)ncc3F)ccc2s1` [Example 31], `CC(=O)N1CCN(C(=O)c2ccc(Nc3ncc(F)c(-c4ccc5nc(N(C)C)sc5c4)n3)nc2)CC1` [Example 35, 1-(4-(6-((4-(2-(dimethylamino)benzothiazole-6-yl)-5-fluoropyrimidine-2-yl)amino)nicotinoyl)piperazine-1-yl)ethyl-1-one] is 27-fold lower in IC50: 590 nM for the first, 22 nM for the second. The second is the more potent here.
